Consider seven molecules from patent publication US5541186A, “Sulfonylaminopyrimidines” (Hoffmann-La Roche Inc., priority 1993, dated 1996).

One assay deals with T1, human ETA receptors (Homo sapiens, UniProt P25101).
T1 construct: made in house
T1 sequence (P25101 21-427): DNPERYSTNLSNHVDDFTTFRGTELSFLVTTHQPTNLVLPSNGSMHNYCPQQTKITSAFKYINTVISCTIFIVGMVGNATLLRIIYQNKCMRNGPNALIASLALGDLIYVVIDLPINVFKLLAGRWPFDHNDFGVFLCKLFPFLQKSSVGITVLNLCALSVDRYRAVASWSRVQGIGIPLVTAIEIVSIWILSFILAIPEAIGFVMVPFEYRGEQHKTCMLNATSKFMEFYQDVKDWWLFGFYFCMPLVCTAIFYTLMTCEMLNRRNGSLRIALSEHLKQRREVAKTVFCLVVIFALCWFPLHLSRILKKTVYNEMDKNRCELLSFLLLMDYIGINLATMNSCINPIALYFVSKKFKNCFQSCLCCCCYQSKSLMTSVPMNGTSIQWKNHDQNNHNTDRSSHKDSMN
In words: Inhibition of endothelin binding to recombinant ETA receptors. The note with it: 125I-endothelin 20 pM; 20° C. for 2 hours or 4° C. for 24 hours; baculovirus-insect cell membranes; read-out: IC50 (concentration required to inhibit 50% of the specific binding of 125I-endothelin). Here is the method: I: Inhibition of endothelin binding to recombinant ETA receptors
A cDNA coding for human ETA receptors of human placenta was cloned (M. Adachi, Y.-Y. Yang, Y. Furuichi and C. Miyamoto, BBRC 180, 1265-1272) and expressed in the baculovirus-insect cell system. Baculovirus-infected insect cells from a 23 l fermenter are centrifuged off (3000×g, 15 minutes, 4° C.) 60 hours after the infection, re-suspended in Tris buffer (5 mM, pH 7.4, 1 mM MgCl2) and again centrifuged. After a further re-suspension and centrifugation the cells are suspended in 800 ml of the same buffer and […] at -120° C. The cells disintegrate when the suspension in this hypotonic buffer mixture is thawed. After a repeated freeze-drying/thawing cycle the suspension is homogenized and centrifuged (25000 ×g, 15 minutes, 4° C.). After suspension in Tris buffer (75 mM, pH 7.4, 25 mM MgCl2, 250 mM saccharose) 1 ml aliquots (protein content about 3.5 mg/ml) are stored at -85° C.
For the binding assay, the […] membrane preparations are thawed and, after centrifugation at 20° C. and 25000 g for 10 minutes, re-suspended in assay buffer (50 mM Tris buffer, pH 7.4, containing 25 mM MnCl2, 1 mM EDTA and 0.5% bovine serum albumin). […] of this membrane suspension containing […] of protein are incubated with […] of ^125 I-endothelin (specific activity 2200 Ci/mMol) in assay buffer (25000 cpm, final concentration 20 pM) and […] of assay buffer containing varying concentrations of test compound. The incubation is carried out at 20° C. for 2 hours or at 4° C. for 24 hours. The separation of free and membrane-bound radio-ligands is carried out by filtration over a glass fiber filter.
The inhibitory activity of compounds of formula I determined in this test procedure is given in Table 1 as the IC50, i.e. as the concentration […] which is required to inhibit 50% of the specific binding of ^125 I-endothelin.

Assay [1] relates to "stroke-prone", spontaneously hypertensive rats. Nature of the assay: In vivo blood pressure in pathophysiologically relevant rat model (telemetry). The conditions noted are these: 30 mg/kg in gum arabic, by probe. Here is the method:
A telemetric system (PA-C40 implant) was implanted into "stroke-prone", spontaneously hypertensive rats under anaesthesia in order that the arterial blood pressure and the heart rate could be measured continuously. The animals were left to recover for 2 weeks after the operation.
The corresponding test compound (30 mg/kg in gum arabic) was finally administered using a probe and the blood pressure was registered continuously. It became evident that compounds of formula I caused a fall in blood pressure, the administration of gum arabic alone (placebo control) having no significant effect on the blood pressure.

In assay [2] the test system is endothelin-induced contractions in isolated rat aorta rings. Nature of the assay: Inhibition of endothelin-induced contractions in isolated rat aorta rings. The conditions noted are these: endothelin-1, no antagonist; half-maximum contraction; read-out: EC50 of endothelin in the absence of test compounds. The assay is classed as cell-based, rat (adult Wistar-Kyoto). Here is the method:
II. Inhibition of endothelin-induced contractions in isolated rat aorta rings
Rings with a length of 5 mm were cut out from the thorax aorta of adult Wistar-Kyoto rats. The endothelium was removed by lightly rubbing the internal surface. Each ring was immersed at 37° C. in 10 ml of Krebs-Henseleit solution in an isolated bath while gassing with 95% O2 and 5% CO2. The isometric stretching of the tings was measured. The rings were stretched to a pre-tension of 3 g. After incubation for 10 minutes with the test compound or vehicle cumulative dosages of endothelin-1 were added. The activity of the test compound was ascertained by the observed shift to the right of the dosage-activity curve of endothelin-1 in the presence of different concentrations of antagonist. This shift to the right (or "dose ratio", DR) corresponds to the quotient from the EC50 values of endothelin-1 in the presence and in the absence of antagonist, with the EC50 value denoting the endothelin concentration required for a half-maximum contraction.
The corresponding PA2 value, which is a measure of the activity of the test compound, was calculated using a computer programme according to the following equation from the "dose ratio" DR for each individual dosage-activity curve.
pA2 =log(DR-1)-log(antagonist-concentration)
The EC50 of endothelin in the absence of test compounds is 0.3 nM.

Consider `COc1ccccc1Oc1c(NS(=O)(=O)c2ccc(C(C)(C)C)cc2)nc(-c2ncccn2)nc1OCCOC(=O)Nc1ccccn1` [Example 70, pyridin-2-ylcarbamic acid 2-[6-(4-tert-butyl-phenylsulfonylamino)-5-(2-methoxy-phenoxy)-2,2'-bipyrimidin-4-yloxy]-ethyl ester], for which the IC50 on human ETA receptors worked out at 6 nM. Moreover, in assay [1], the “% Decrease in the average arterial blood pressure (mm Hg)” value is 30%.

Turning to `COc1ccccc1Oc1c(NS(=O)(=O)c2ccc(C(C)(C)C)cc2)nc(N2CCOCC2)nc1OCCOC(=O)Nc1ccco1` [Example 75, furan-2-ylcarbamicacid 2-[6-(4-tert-butyl-phenylsulfonylamino)-5-(2-methoxy-phenoxy)-2-morpholin-4-yl-pyrimidin-4-yloxy]-ethyl ester], the IC50 at human ETA receptors was found to be 3 nM. Same read-out and setting: to `COc1ccc(S(=O)(=O)Nc2ncnc(OCCOC(=O)Nc3ccccn3)c2Oc2ccccc2OC)cc1CCC(=O)N1CCOCC1` [Example 120, pyridin-2-ylcarbamic acid 2-[6-[4-methoxy-3-(3-morpholin-4-yl-3-oxo-propyl)-phenylsulfonylamino]-5-(2-methoxy-phenoxy)-pyrimidin-4-yloxy]-ethyl ester] belongs 7 nM. As to “endothelin: endothelin-1, agonist added in cumulative dosages to the rat aorta rings”, the EC50 in assay [2] is 0.3 nM. Regarding `COCCc1nc(NS(=O)(=O)c2ccc3c(c2)OCO3)c(Oc2cc(OC)ccc2Cl)c(OCCOC(=O)Nc2ccccn2)n1` [Example 10, pyridine-2-ylcarbamic acid 2-[6-(1,3-benzodioxol-5-ylsulfonylamino)-5-(2-chloro-5-methoxy-phenoxy)-2-(2-methoxyethyl)-pyrimidin-4-yloxy]-ethyl ester], the IC50 at human ETA receptors came out at 1 nM. For the molecule `COc1ccc(Cl)c(Oc2c(NS(=O)(=O)c3ccc(C(C)(C)C)cc3)ncnc2OCCNC(=O)Nc2ccncc2)c1` [Example 134], the IC50 at human ETA receptors stood at 44 nM. Take `COc1ccc(Cl)c(Oc2c(NS(=O)(=O)c3ccc4c(c3)OCO4)ncnc2OCCOC(=O)OCc2ccccn2)c1` [Example 140, carboxylic acid 2-[6-(1,3-benzodioxol-5-ylsulfonylamino)-5-(2-chloro-5-methoxy-phenoxy)-pyrimidin-4-yloxy]-ethyl ester pyridin-2-ylmethyl ester]: the IC50 on human ETA receptors was 9 nM.

As a reminder, the EC50 is the concentration at which the effect is half-maximal.
